Reference: patent publication US7084166B2, “Bis-heterocyclic compounds with antitumour and chemosensitising activity” (Sigma-Tau Industrie Farmaceutichee Riunite S.p.A., priority 2000, dated 2006)

Columns and labels:
Type in all cases: cell-based
[1] = test system: HL60 cells (acute promyelocytic leukaemia); experiment: Cell differentiation by reduction of nitroblue tetrazolium (NBT), with suboptimal ATRA; conditions: combined with suboptimal doses of ATRA; for AC50: Homo sapiens, HL-60, 72 h, 3 days, read-out: AC50 (concentration at which the tested compound induces 50% of cell differentiation)
Method: (§1) The second line used was the HL60 cell line which responds to ATRA (but is less sensitive than the NB4 cell line).
(§2) The HL60 and NB4 cells were seeded at a density of 150,000 cells/ml in RPMI 1640 medium containing 10% foetal calf serum, and were treated with the tested compounds in the presence and absence of suboptimal doses of ATRA (5–10 nM for NB4 and 0.5 μM for HL60, respectively) in the dark, and returned to the incubator for 3 days without ever replacing the culture medium.
(§3) To analyse the differentiative effect of the tested compounds vs ATRA, on the third day of treatment 500,000 viable cells were harvested from each sample, centrifuged for 10 minutes at 1.000 rpm and resuspended in 1 ml of RPMI 1640 medium containing 10% foetal calf serum, 1 mg/ml of nitroblue tetrazolium (NBT) and 100 ng of PMA (phorbol 12-myristate 13-acetate).
(§4) The cells thus resuspended were incubated in the dark at 37° C. for 60 minutes.
(§5) At the end of the incubation, the cell suspension was centrifuged for 10 minutes at 10,000 rpm; the pellet obtained was then resuspended in 1 ml of PBS containing 10% Triton X-100 and sonicated to lysis.
(§6) Spectrophotometric readings of the samples were then taken at a wavelength of 540 nm: samples containing differentiated cells shifted towards a violet colour, whereas control samples and/or samples with non-differentiated cells were colourless or, at any rate, much less intensely coloured.
(§7) The AC50 (Activating Concentration) is the concentration at which the tested compound induces 50% of cell differentiation.
(§8) Fold Induction is the increase in the differentiation value of the cell sample treated with the tested compound +ATRA vs the value of the cell sample treated with ATRA alone. This value provides an indication of the ability (potency) of the tested compound to enhance ATRA induced cell differentiation.

[2] = test system: NB4 cells (acute promyelocytic leukaemia); experiment: Flow cytofluorimetric analysis of cell cycle; set-up: APOPTOSIS: unit not given here
Method: The first line used was the NB4 cell line, bearing the t(15;17) chromosomal translocation which generates the fusion protein PML/RARα.
(§9) To assess the effect of the tested compounds on the various phases of the cell cycle, on the third day of treatment 500,000 cells were harvested, centrifuged at 1,000 rpm for 10 minutes, washed twice in PBS w/o (PBS without calcium and magnesium) and fixed in a solution of 50% PBS w/o+50% methanol/acetone (1:4 v/v) for at least 1 hour; the cells were then centrifuged as described, washed in PBS w/o and centrifuged again.
(§10) 200 μl of propidium iodide 100 μg/ml and 200 μl of RNase 150 kU/mg were then added to the cell pellet.
(§11) After a 30-min incubation in the dark at room temperature, the samples were analysed by flow cytofluirometry.

[3] = test system: NB4 cells (acute promyelocytic leukaemia); experiment: Cell differentiation by reduction of nitroblue tetrazolium (NBT), with suboptimal ATRA; conditions: for AC50: Homo sapiens, NB-4, 72 h, 3 days, read-out: AC50 (concentration at which the tested compound induces 50% of cell differentiation); for AC50 / fold induction (differentiation, compound + ATRA vs ATRA alone): combined with suboptimal doses of ATRA, NBT
Method: The first line used was the NB4 cell line, bearing the t(15;17) chromosomal translocation which generates the fusion protein PML/RARα. This line is very sensitive to the differentiative action of pharmacological doses of ATRA (10^−7–10^−6 M).
as §2, §3, §4, §5, §6, §7, §8

[4] = test system: MES-SA (human uterine sarcoma); experiment: Cytotoxicity test on sensitive tumour cell lines (sulforodamine B test); conditions: Homo sapiens, MES-SA; 24 h incubation, survival after 48 h; ± S.D.; read-out: antiproliferative activity IC50, Mes-Sa
Method: (§12) This test was used to evaluate the survival of the human cell lines MCF-7 (human mammary carcinoma), LoVo (human colon adenocarcinoma), and MES-SA (human uterine sarcoma). The tumour cells were incubated with the compound, at scalar concentrations, (500 μM÷0.97 μM) for 24 hours; the compound was then removed and cell survival was evaluated after 48 hours using the sulforodamine B test (J. Natl. Cancer Inst. 82, 1107–1112). The antiproliferative activity of the compounds was evaluated in terms of the IC50 (concentration of the molecule that inhibits 50% of cell survival) processed with a curve-fitting program (Am. J. Physiol. 1978., 235, E97–E102) and expressed as μM±S.D.

[5] = test system: LoVo (human colon adenocarcinoma); experiment: as above; conditions: Homo sapiens, LoVo; 24 h incubation, survival after 48 h; ± S.D.; read-out: antiproliferative activity IC50, Lovo
Method: as §12

[6] = test system: MCF-7 (human mammary carcinoma); experiment: as above; conditions: Homo sapiens, MCF7; 24 h incubation, survival after 48 h; ± S.D.; read-out: antiproliferative activity IC50, MCF-7
Method: as §12

[7] = test system: MES-SA Dx (human uterine sarcoma); experiment: Cytotoxicity test on resistant tumour cell lines, tested compound alone; conditions: Homo sapiens, MES-SA Dx; 24 h incubation, survival after 48 h; ± SD
Method: (§13) This test was used to evaluate the survival of human cell lines resistant to doxorubicin (about 100 times) and cross-resistant to daunorubicin, actinomycin D, mitoxantrone, vincristine, vinblastin, taxol, colchicine, and etoposide.
(§14) The following cell lines were used: MCF-7-Dx (human mammary carcinoma), LoVo-Dx (human colon adenocarcinoma), MES-SA Dx (human uterine sarcoma).
(§15) Before using the association doxorubicin-tested compound, the cytotoxicity of the cells was evaluated with the tested compound (alone) as follows: the cells were incubated with the compound, at scalar concentrations (500 μM÷0.97 μM), for 24 hours; the compound was then removed and cell survival was evaluated after 48 hours with the above-mentioned sulforodamine B test. The antiproliferative activity of the compounds was evaluated in terms of IC50 (concentration of the compound that inhibits 50% of cell survival) processed with the above-mentioned curve-fitting program.

[8] = test system: MCF-7-Dx (human mammary carcinoma); experiment: as above; conditions: Homo sapiens, MCF7/DX, 24 h incubation, survival after 48 h; ± SD
Method: as §13, §14, §15

[9] = test system: LoVo-Dx (human colon adenocarcinoma); experiment: as above; conditions: Homo sapiens, LoVo/DX; 24 h incubation, survival after 48 h; ± SD
Method: as §13, §14, §15

[10] = test system: HL60 cells (acute promyelocytic leukaemia); experiment: Flow cytofluorimetric analysis of cell cycle; conditions: for G0/G1 / G2/M / S: day 3
Method: as §1, §2, §9, §10, §11

[11] = compound 1 μM + ATRA 0.01 μM, day 3
[12] = compound 1 μM + ATRA 0.01 μM, day 3, listed as ST1346
[13] = compound 5 μM + ATRA 0.01 μM, day 3
[14] = compound 5 μM + ATRA 0.01 μM, day 3, listed as ST1346
[15] = compound 10 μM + ATRA 0.01 μM, day 3
[16] = compound 10 μM + ATRA 0.01 μM, day 3, listed as ST1346
[17] = compound 50 μM + ATRA 0.01 μM, day 3
[18] = compound 50 μM + ATRA 0.01 μM, day 3, listed as ST1346

## OCCCCC(c1c[nH]c2ccccc12)c1c[nH]c2ccccc12 [ST 1346, 5-hydroxy-1,1-di-(indol-3-yl)-pentane]
[1]
  AC50: 14.8 ± 1.6 µM
  fold induction (differentiation, compound + ATRA vs ATRA alone): 2.7
[2]; [11]
  APOPTOSIS: 17.5
  G0/G1: 57.1
  G2/M: 13.9
  S: 29.0
[2]; [12]
  APOPTOSIS: 14
  G0/G1: 61.5
  G2/M: 12.9
  S: 25.6
[2]; [13]
  APOPTOSIS: 17.0
  G0/G1: 58.4
  G2/M: 13.9
  S: 27.7
[2]; [14]
  APOPTOSIS: 13.5
  G0/G1: 58.0
  G2/M: 13.5
  S: 28.5
[2]; [15]
  APOPTOSIS: 15.0
  G0/G1: 58.4
  G2/M: 13.0
  S: 28.6
[2]; [16]
  APOPTOSIS: 13
  G0/G1: 60.0
  G2/M: 12.6
  S: 27.4
[2]; [17]
  APOPTOSIS: 10.0
  G0/G1: 82.2
  G2/M: 8.0
  S: 9.8
[2]; [18]
  APOPTOSIS: 17
  G0/G1: 84.2
  G2/M: 6.3
  S: 9.5
[2]; compound alone 1 μM, day 3
  APOPTOSIS: 23
  G0/G1: 46.9
  G2/M: 15.7
  S: 37.4
[2]; compound alone 5 μM, day 3
  APOPTOSIS: 24
  G0/G1: 47.4
  G2/M: 13.8
  S: 38.8
[2]; compound alone 10 μM, day 3
  APOPTOSIS: 23
  G0/G1: 50.0
  G2/M: 14.7
  S: 35.3
[2]; compound alone 50 μM, day 3
  APOPTOSIS: 46
  G0/G1: 59.4
  G2/M: 7.3
  S: 33.3
[2]; compound alone (ST 1346: high doses)
  effect of the compound alone on cell cycle and apoptosis (in words): induce growth arrest (in the G0/G1 phase of the cell cycle) and apoptosis
[3]
  AC50: 1.5 ± 0.5 µM
  fold induction (differentiation, compound + ATRA vs ATRA alone): 3.0
[3]; doses 1, 5, 10, 50 μM with suboptimal ATRA
  dose reaching maximal effect in sensitising ATRA-induced terminal differentiation: 10 µM

## OCCCCC(c1c[nH]c2cc3c(cc12)OCO3)c1c[nH]c2cc3c(cc12)OCO3 [ST 1422, 5-hydroxy-1,1-di-(5,6-methylenedioxy-indol-3-yl)-pentane]
[4]
  IC50: 79.3 ± 7.8 µM
[5]
  IC50: 23 ± 4.4 µM
[6]
  IC50: 43.1 ± 1.2 µM
[1]
  AC50: 13.6 ± 2.6 µM
  fold induction (differentiation, compound + ATRA vs ATRA alone): 2.2
[3]
  AC50: 9.8 ± 0.1 µM
  fold induction (differentiation, compound + ATRA vs ATRA alone): 1.85
[7]
  IC50: 73.3 ± 2.7 µM
[8]
  IC50: 40.1 ± 1.2 µM
[9]
  IC50: 22.3 ± 2.9 µM
[10]; compound 1 μM + ATRA 0.5 μM
  G0/G1: 66.8
  G2/M: 11.0
  S: 22.2
[10]; compound 5 μM + ATRA 0.5 μM
  G0/G1: 65.1
  G2/M: 11.4
  S: 23.5
[10]; compound 10 μM + ATRA 0.5 μM
  G0/G1: 62.5
  G2/M: 12.5
  S: 25.0
[10]; compound 50 μM + ATRA 0.5 μM
  G0/G1: 75.7
  G2/M: 13.8
  S: 10.5
[10]; compound alone
  effect of the compound alone on induction of apoptosis (in words): showed no effect on the induction of apoptosis
[10]; compound alone 1 μM
  G0/G1: 56.2
  G2/M: 10.0
  S: 33.8
[10]; compound alone 5 μM
  G0/G1: 57.6
  G2/M: 10.4
  S: 32.0
[10]; compound alone 10 μM
  G0/G1: 57.8
  G2/M: 10.5
  S: 31.7
[10]; compound alone 50 μM
  G0/G1: 65.8
  G2/M: 16.4
  S: 17.8

## Cn1cc(C(CCCCO)c2cn(C)c3ccccc23)c2ccccc21 [ST 1974, 5,5-bis-(1-methyl-1H-indol-3-yl)-1 Pentanol]
[1]
  AC50: 9.5 ± 2.6 µM
  fold induction (differentiation, compound + ATRA vs ATRA alone): 1.6
[3]
  AC50: 7.8 ± 2.6 µM
  fold induction (differentiation, compound + ATRA vs ATRA alone): 1.8
[10]; compound 1 μM + ATRA 0.5 μM
  G0/G1: 62.0
  G2/M: 11.7
  S: 26.3
[10]; compound 5 μM + ATRA 0.5 μM
  G0/G1: 63.8
  G2/M: 10.5
  S: 25.7
[10]; compound 10 μM + ATRA 0.5 μM
  G0/G1: 65.4
  G2/M: 10.5
  S: 24.1
[10]; compound 50 μM + ATRA 0.5 μM
  G0/G1: 81.8
  G2/M: 10.6
  S: 7.6
[10]; compound alone 1 μM
  G0/G1: 58.9
  G2/M: 11.1
  S: 30
[10]; compound alone 5 μM
  G0/G1: 59.3
  G2/M: 11.4
  S: 29.3
[10]; compound alone 10 μM
  G0/G1: 57.8
  G2/M: 12.2
  S: 30
[10]; compound alone 50 μM
  G0/G1: 67.7
  G2/M: 12.3
  S: 20
